Consider 42 compounds from US10544143B2, “4-azaindole compounds” (BRISTOL-MYERS SQUIBB COMPANY, priority 2017, dated 2020).

Assay [1] concerns the target human TLR9 (Homo sapiens (Human), UniProt Q9NR96). The assay is described as follows: TLR9 inhibition reporter assay (HEK-Blue SEAP).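 Also: SEAP driven by an IFN-β minimal promoter with NF-κB and AP-1 sites, read after 22 h, compounds dosed 0.05 nM–50 µM, inhibition scaled between agonist plus DMSO and reference-inhibitor wells.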 The note with it: read-out: TLR9 IC50; HEK-Blue cells overexpressing human TLR9, ODN2006 5 nM stimulation, SEAP reporter. In general terms: In a reporter assay the amount or activity of a reporter protein is the signal.
Description: HEK-Blue™-cells (Invivogen) overexpressing human TLR7, TLR8 or TLR9 receptors were used for screening inhibitors of these receptors using an inducible SEAP (secreted embryonic alkaline phosphatase) reporter gene under the control of the IFN-β minimal promoter fused to five NF-κB and AP-1-binding sites. Briefly, cells are seeded into Greiner 384 well plates (15000 cells per well for TLR7, 20,000 for TLR8 and 25,000 for TLR9) and then treated with test compounds in DMSO to yield a final dose response concentration range of 0.05 nM-50 μM. After a 30 minute compound pre-treatment at room temperature, the cells are then stimulated with a TLR7 ligand (gardiquimod at a final concentration of 7.5 μM), TLR8 ligand (R848 at a final concentration of 15.9 μM) or TLR9 ligand (ODN2006 at a final concentration of 5 nM) to activate NF-κB and AP-1 which induce the production of SEAP. After a 22 hour incubation at 37° C., 5% CO2, SEAP levels are determined with the addition of HEK-Blue™ Detection reagent (Invivogen), a cell culture medium that allows for detection of SEAP, according to manufacturer's specifications.
The target in assay [2] is human TLR8 (Homo sapiens (Human), UniProt Q9NR97). Nature of the assay: TLR8 inhibition reporter assay (HEK-Blue SEAP).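 Also: SEAP driven by IFN-β minimal promoter carrying NF-κB and AP-1 sites, compounds dosed 0.05 nM to 50 µM for 22 h, inhibition scaled between agonist-plus-DMSO and reference-inhibitor wells.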 Particulars: read-out: TLR8 IC50; HEK-Blue cells overexpressing human TLR8, R848 15.9 μM stimulation, SEAP reporter.
For assay [3], the target named is human TLR7 (Homo sapiens (Human), UniProt Q9NYK1). Nature of the assay: TLR7 inhibition reporter assay (HEK-Blue SEAP). The class given is cell-based. Particulars: HEK-Blue cells overexpressing human TLR7, gardiquimod 7.5 μM stimulation, SEAP reporter.

Bounds are passed on as bounds.

Chain of human TLR9 (Q9NR96 26-1032): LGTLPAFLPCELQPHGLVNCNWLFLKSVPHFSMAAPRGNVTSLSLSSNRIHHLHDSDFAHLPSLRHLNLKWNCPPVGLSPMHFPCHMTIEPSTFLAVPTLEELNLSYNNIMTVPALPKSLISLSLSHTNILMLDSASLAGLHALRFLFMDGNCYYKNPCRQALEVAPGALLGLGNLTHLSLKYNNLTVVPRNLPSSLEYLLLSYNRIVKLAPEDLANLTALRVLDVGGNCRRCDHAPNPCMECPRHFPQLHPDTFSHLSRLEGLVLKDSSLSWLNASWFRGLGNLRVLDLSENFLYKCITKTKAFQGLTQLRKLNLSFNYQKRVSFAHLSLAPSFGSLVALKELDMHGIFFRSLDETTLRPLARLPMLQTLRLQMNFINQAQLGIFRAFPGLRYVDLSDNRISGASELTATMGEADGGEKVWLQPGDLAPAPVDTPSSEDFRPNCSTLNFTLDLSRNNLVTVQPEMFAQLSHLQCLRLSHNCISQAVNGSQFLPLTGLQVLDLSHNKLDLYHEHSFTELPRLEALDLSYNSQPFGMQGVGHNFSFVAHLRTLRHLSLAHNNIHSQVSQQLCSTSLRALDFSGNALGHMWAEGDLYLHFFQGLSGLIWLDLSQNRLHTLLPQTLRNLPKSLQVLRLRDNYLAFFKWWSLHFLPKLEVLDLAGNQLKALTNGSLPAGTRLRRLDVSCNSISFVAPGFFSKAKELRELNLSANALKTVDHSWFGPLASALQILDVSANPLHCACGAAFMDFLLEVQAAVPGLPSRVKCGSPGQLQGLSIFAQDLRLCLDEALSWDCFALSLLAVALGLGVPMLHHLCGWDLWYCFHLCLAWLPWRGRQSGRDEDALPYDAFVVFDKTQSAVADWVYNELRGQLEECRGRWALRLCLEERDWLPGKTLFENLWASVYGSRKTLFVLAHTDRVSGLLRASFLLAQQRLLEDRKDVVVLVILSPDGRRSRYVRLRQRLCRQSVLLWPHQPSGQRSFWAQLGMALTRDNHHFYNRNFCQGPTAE
Chain of human TLR7 (Q9NYK1 27-1049): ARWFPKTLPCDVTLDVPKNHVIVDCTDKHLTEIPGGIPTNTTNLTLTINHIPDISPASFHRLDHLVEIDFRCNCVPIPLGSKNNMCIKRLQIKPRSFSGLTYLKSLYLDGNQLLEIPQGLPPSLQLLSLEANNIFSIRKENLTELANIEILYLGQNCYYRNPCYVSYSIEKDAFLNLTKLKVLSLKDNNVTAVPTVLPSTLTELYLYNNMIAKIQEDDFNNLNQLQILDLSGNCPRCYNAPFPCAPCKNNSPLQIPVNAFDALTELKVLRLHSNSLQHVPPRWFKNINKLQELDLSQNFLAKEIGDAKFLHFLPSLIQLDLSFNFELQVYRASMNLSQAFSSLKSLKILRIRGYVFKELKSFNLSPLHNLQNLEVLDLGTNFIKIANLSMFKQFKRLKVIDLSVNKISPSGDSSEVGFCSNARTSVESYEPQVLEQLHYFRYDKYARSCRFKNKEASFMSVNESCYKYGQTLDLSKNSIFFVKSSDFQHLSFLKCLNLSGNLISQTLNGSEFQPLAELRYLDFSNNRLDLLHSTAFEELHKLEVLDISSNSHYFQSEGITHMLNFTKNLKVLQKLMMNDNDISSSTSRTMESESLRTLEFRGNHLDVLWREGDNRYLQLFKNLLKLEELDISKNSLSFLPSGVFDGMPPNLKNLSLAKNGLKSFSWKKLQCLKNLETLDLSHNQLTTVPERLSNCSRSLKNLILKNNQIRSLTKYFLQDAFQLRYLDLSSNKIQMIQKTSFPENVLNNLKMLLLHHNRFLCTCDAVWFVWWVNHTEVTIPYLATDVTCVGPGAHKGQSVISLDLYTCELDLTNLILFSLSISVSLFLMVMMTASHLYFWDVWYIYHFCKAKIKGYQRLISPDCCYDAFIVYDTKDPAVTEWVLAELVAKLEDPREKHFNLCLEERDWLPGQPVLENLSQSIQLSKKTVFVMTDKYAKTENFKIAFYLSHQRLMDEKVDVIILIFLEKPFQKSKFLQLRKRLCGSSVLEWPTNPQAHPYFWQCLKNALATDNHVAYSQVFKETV
Chain of human TLR8 (Q9NR97 27-1041): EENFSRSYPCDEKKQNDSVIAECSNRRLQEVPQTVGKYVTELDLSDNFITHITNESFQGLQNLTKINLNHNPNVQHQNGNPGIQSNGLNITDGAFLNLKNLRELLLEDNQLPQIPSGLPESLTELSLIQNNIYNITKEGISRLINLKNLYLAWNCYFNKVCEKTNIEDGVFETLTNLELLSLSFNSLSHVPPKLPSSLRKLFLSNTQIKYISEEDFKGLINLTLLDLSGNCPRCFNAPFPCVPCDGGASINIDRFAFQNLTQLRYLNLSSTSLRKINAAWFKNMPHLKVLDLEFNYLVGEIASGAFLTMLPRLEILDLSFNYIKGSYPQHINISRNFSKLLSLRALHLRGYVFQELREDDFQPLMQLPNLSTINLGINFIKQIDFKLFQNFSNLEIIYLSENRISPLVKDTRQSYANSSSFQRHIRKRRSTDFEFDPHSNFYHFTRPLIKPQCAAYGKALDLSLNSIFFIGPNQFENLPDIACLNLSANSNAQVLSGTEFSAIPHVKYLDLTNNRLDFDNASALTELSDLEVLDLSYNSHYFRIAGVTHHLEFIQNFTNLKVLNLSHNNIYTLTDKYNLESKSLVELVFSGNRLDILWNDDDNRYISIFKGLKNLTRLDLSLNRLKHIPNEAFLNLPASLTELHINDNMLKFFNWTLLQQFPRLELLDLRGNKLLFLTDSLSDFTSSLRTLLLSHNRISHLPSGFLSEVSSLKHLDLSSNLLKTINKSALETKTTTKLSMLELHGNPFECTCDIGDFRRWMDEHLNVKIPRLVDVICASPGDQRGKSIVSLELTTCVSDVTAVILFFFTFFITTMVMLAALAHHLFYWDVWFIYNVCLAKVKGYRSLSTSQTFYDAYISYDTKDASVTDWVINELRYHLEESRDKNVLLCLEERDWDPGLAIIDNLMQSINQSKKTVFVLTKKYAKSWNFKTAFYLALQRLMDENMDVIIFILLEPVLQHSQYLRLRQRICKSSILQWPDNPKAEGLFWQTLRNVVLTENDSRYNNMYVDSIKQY

The IC50 is the concentration that inhibits the measured activity by half. Take `COCc1cc(-c2[nH]c3ccc(C4CCC(NC5COC5)CC4)nc3c2C(C)C)cn2ncnc12` (stereo not drawn) [Example 214]: the figures for the IC50 in assay [1], in assay [2] and in assay [3] were 0.833 µM, 0.0063 µM and 0.0039 µM, respectively.
For `CC(C)c1c(-c2cc(CO)c3ncnn3c2)[nH]c2ccc(C3CCC(NC4COC4)CC3)nc12` (stereo not drawn) [Example 215] the same measures were 2.25 µM, 0.0076 µM and […].
For the compound `CC(C)c1c(-c2cc(CO)c3ncnn3c2)[nH]c2ccc(C3CCC(NCc4c[nH]nn4)CC3)nc12` (stereo not drawn) [Example 218], the results for the half-maximal inhibitory concentration (IC50) in assay [1], in assay [2] and in assay [3] were 0.389 µM, 0.02 µM and 0.0085 µM, respectively.
In the case of `COc1cc(-c2[nH]c3ccc(C4CCC(NCC5(S(C)(=O)=O)CC5)CC4)nc3c2C(C)C)cn2ncnc12` (stereo not drawn) [Example 219], the IC50 stood at 2.48 µM in assay [1], 0.008 µM in assay [2] and 0.0039 µM in assay [3].
The corresponding values for `CC(C)c1c(-c2cc(CO)c3ncnn3c2)[nH]c2ccc(C3CCC(NC4COC4)CC3)nc12` (stereo not drawn) [Example 220] are 1.02 µM, 0.0061 µM and […].
Regarding `CC(C)c1c(-c2cc(CO)c3ncnn3c2)[nH]c2ccc(C3CCC(NCc4c[nH]nn4)CC3)nc12` (stereo not drawn) [Example 221], the IC50 in assay [1] stood at 0.435 µM; in assay [2], 0.013 µM; in assay [3] it was 0.0037 µM.
For `Cc1cnc(CNC2CCC(c3ccc4[nH]c(-c5cc(CO)c6ncnn6c5)c(C(C)C)c4n3)CC2)cn1` (stereo not drawn) [Example 224] the same measures were 0.718 µM, 0.0042 µM and 0.0015 µM.
The corresponding values for `COc1cc(-c2[nH]c3ccc(C4CCC(N(C)CC(N)=O)CC4)nc3c2C(C)C)cn2ncnc12` (stereo not drawn) [Example 225] are 3.36 µM, 0.035 µM and 0.004 µM.
For `COc1cc(-c2[nH]c3ccc(C4CCC(N(C)CC(=O)N(C)C)CC4)nc3c2C(C)C)cn2ncnc12` (stereo not drawn) [Example 226] the same measures were 1.79 µM, 0.014 µM and 0.0027 µM.
Regarding `CNC(=O)CN(C)C1CCC(c2ccc3[nH]c(-c4cc(OC)c5ncnn5c4)c(C(C)C)c3n2)CC1` (stereo not drawn) [Example 227], the IC50 was 0.926 µM in assay [1], 0.0077 µM in assay [2] and 0.002 µM in assay [3].
The corresponding values for `CNC(=O)CN(C)C1CCC(c2ccc3[nH]c(-c4cc(OC)c5ncnn5c4)c(C(C)C)c3n2)CC1` (stereo not drawn) [Example 228] are 2.39 µM, 0.023 µM and 0.0033 µM.
For `COCc1cc(-c2[nH]c3ccc(C4CCC(NC5COC5)CC4)nc3c2C(C)C)cn2ncnc12` (stereo not drawn) [Example 229] the same measures were 1.71 µM, 0.018 µM and 0.019 µM.
The corresponding values for `COCc1cc(-c2[nH]c3ccc(C4CCC(NCC(=O)N(C)C)CC4)nc3c2C(C)C)cn2ncnc12` (stereo not drawn) [Example 230] are 2.46 µM, 0.033 µM and 0.038 µM.
In the case of `COc1cc(-c2[nH]c3ccc(C4CCC(NCC(=O)N(C)C)CC4)nc3c2C(C)C)cn2ncnc12` (stereo not drawn) [Example 231], the figures for the IC50 in assay [1], in assay [2] and in assay [3] were 0.365 µM, 0.003 µM and 0.00061 µM, respectively.
For `COc1cc(-c2[nH]c3ccc(C4CCC(NCC(=O)N(C)C)CC4)nc3c2C(C)C)cn2ncnc12` (stereo not drawn) [Example 232] the same measures were 0.484 µM, 0.0098 µM and 0.003 µM.
As for `Cc1c(-c2[nH]c3ccc(C4CCC(NC5COC5)CC4)nc3c2C(C)C)cn2cnnc2c1C` (stereo not drawn) [Example 233], the figures for the IC50 in assay [1], in assay [2] and in assay [3] were 2.66 µM, 0.024 µM and 0.011 µM, respectively.
In the case of `Cc1c(-c2[nH]c3ccc(C4CCC(NC5COC5)CC4)nc3c2C(C)C)cn2cnnc2c1C` (stereo not drawn) [Example 234], the IC50 turned out to be 0.435 µM in assay [1], 0.005 µM in assay [2] and 0.0016 µM in assay [3].
The corresponding values for `CC(C)c1c(-c2cc(CO)c3ncnn3c2)[nH]c2ccc(C3CCC(NC4COC4)CC3)nc12` (stereo not drawn) [Example 235] are 0.929 µM, 0.002 µM and […].
For `CC(C)c1c(-c2cn(C)c3ncccc23)[nH]c2ccc(C3CCC(NCC4(S(C)(=O)=O)CC4)CC3)nc12` (stereo not drawn) [Example 236] the same measures were 0.376 µM, 0.0028 µM and 0.0039 µM.
The corresponding values for `Cc1c(-c2[nH]c3ccc(C4CCC(N(C5CC5)C5COC5)CC4)nc3c2C(C)C)cn2cnnc2c1C` (stereo not drawn) [Example 237] are 18.2 µM, 0.019 µM and 0.02 µM.
With `CC(C)c1c(-c2cn(C)c3ncccc23)[nH]c2ccc(C3CCC(NCC4(S(C)(=O)=O)CC4)CC3)nc12` (stereo not drawn) [Example 238], the IC50 is 0.297 µM in assay [1], 0.00097 µM in assay [2] and 0.00071 µM in assay [3].
The corresponding values for `Cc1c(-c2[nH]c3ccc(C4CCC(N(C5CC5)C5COC5)CC4)nc3c2C(C)C)cn2cnnc2c1C` (stereo not drawn) [Example 239] are greater than 50 µM, 0.181 µM and 0.106 µM.
`COc1cc(-c2[nH]c3ccc(C4CCC(N(C)C5COC5)CC4)nc3c2C(C)C)cn2ncnc12` (stereo not drawn) [Example 240]: the figures for the IC50 in assay [1], in assay [2] and in assay [3] were 5.08 µM, 0.016 µM and 0.0054 µM, respectively.
The corresponding values for `COc1cc(-c2[nH]c3ccc(C4CCC(N(C)CCS(C)(=O)=O)CC4)nc3c2C(C)C)cn2ncnc12` (stereo not drawn) [Example 241] are 1.75 µM, 0.0029 µM and 0.002 µM.
For `COc1cc(-c2[nH]c3ccc(C4CCC(N(C)CCS(C)(=O)=O)CC4)nc3c2C(C)C)cn2ncnc12` (stereo not drawn) [Example 242] the same measures were 2.41 µM, 0.015 µM and 0.0015 µM.
The corresponding values for `CC(C)c1c(-c2cn(C)c3ncccc23)[nH]c2ccc(C3CCC(NC4CC4)CC3)nc12` (stereo not drawn) [Example 243] are 0.999 µM, 0.0095 µM and 0.0076 µM.
For `COc1cc(-c2[nH]c3ccc(C4CCC(N5CC6(COC6)C5)CC4)nc3c2C(C)C)cn2ncnc12` (stereo not drawn) [Example 244], the IC50 in assay [1] worked out at 2.35 µM; in assay [2], 0.0082 µM; in assay [3], 0.0016 µM.
The corresponding values for `CC(C)c1c(-c2cn(C)c3ncccc23)[nH]c2ccc(C3CCC(N4CC5(COC5)C4)CC3)nc12` (stereo not drawn) [Example 245] are 0.343 µM, 0.0047 µM and 0.0027 µM.
For `CC(C)c1c(-c2cc(CO)c3ncnn3c2)[nH]c2ccc(C3CCC(N(C)C4COC4)CC3)nc12` (stereo not drawn) [Example 246], the IC50 in assay [1] was 4.28 µM; in assay [2] it was 0.0026 µM; in assay [3], 0.0019 µM.
The corresponding values for `CC(C)c1c(-c2cn(C)c3ncccc23)[nH]c2ccc(C3CCC(NCCS(C)(=O)=O)CC3)nc12` (stereo not drawn) [Example 247] are 0.825 µM, 0.0012 µM and 0.0012 µM.
The corresponding values for `COc1cc(-c2[nH]c3ccc(C4CCC(N5CC6(C5)CS(=O)(=O)C6)CC4)nc3c2C(C)C)cn2ncnc12` (stereo not drawn) [Example 248] are 1.79 µM, 0.013 µM and 0.0015 µM.
The corresponding values for `Cc1c(-c2[nH]c3ccc(C4CCC(N(C)C5COC5)CC4)nc3c2C(C)C)cn(C)c(=O)c1C` (stereo not drawn) [Example 249] are 5.98 µM, 0.0073 µM and 0.025 µM.
With `Cc1cc(-c2[nH]c3ccc(C4CCC(N(C)C5COC5)CC4)nc3c2C(C)C)cn(C)c1=O` (stereo not drawn) [Example 250], the IC50 in assay [1] came to 13.7 µM; in assay [2], 0.057 µM; in assay [3], 0.026 µM.
For `CC(C)c1c(-c2cn(C)c3ncccc23)[nH]c2ccc(C3CCC(NCCS(C)(=O)=O)CC3)nc12` (stereo not drawn) [Example 251] the same measures were 1.75 µM, 0.013 µM and 0.0086 µM.
For the compound `CC(C)c1c(-c2cc(CO)c3ncnn3c2)[nH]c2ccc(C3CCC(N(C)C4COC4)CC3)nc12` (stereo not drawn) [Example 252], the results for the IC50 in assay [1], in assay [2] and in assay [3] were 7.25 µM, 0.01 µM and 0.008 µM, respectively.
The corresponding values for `COc1cc(-c2[nH]c3ccc(C4CCC(N5CC6(C5)CS(=O)(=O)C6)CC4)nc3c2C(C)C)cn2ncnc12` (stereo not drawn) [Example 253] are 1.15 µM, 0.00072 µM and 0.00065 µM.
For `Cc1c(-c2[nH]c3ccc(C4CCC(N(C)C5COC5)CC4)nc3c2C(C)C)cn(C)c(=O)c1C` (stereo not drawn) [Example 254] the same measures were 8.73 µM, 0.027 µM and 0.072 µM.
The corresponding values for `CC(C)c1c(-c2cn(C)c3ncccc23)[nH]c2ccc(C3CCC(N4CC5(C4)CS(=O)(=O)C5)CC3)nc12` (stereo not drawn) [Example 255] are 0.218 µM, 0.00025 µM and 0.0006 µM.
As for `CC(C)c1c(-c2cn(C)c3ncccc23)[nH]c2ccc(C3CCC(N4CC5(C4)CS(=O)(=O)C5)CC3)nc12` (stereo not drawn) [Example 256], the values for the half-maximal inhibitory concentration (IC50) in assay [1], in assay [2] and in assay [3] were 0.335 µM, 0.0037 µM and 0.0012 µM, respectively.
`CC(C)c1c(-c2cn(CCS(C)(=O)=O)c3ncccc23)[nH]c2ccc(C3CCC(NCC(=O)N(C)C)CC3)nc12` (stereo not drawn) [Example 257]: the IC50 in assay [1] came to 0.175 µM; in assay [2] it was 0.025 µM; in assay [3] it was 0.035 µM.
The corresponding values for `CC(C)c1c(-c2cn(CCS(C)(=O)=O)c3ncccc23)[nH]c2ccc(C3CCC(N4CC5(COC5)C4)CC3)nc12` (stereo not drawn) [Example 258] are 0.1 µM, 0.0035 µM and 0.013 µM.
Turning to `CC(C)c1c(-c2cn(CCS(C)(=O)=O)c3ncccc23)[nH]c2ccc(C3CCC(NCC4(S(C)(=O)=O)CC4)CC3)nc12` (stereo not drawn) [Example 259], the IC50 in assay [1] was found to be 0.321 µM; in assay [2], 0.0071 µM; in assay [3], 0.019 µM.
